Assays:
[1] = target: T1, Full-length human PRMT1 isoform 1 (Homo sapiens, UniProt Q99873); test: PRMT1 biochemical assay (3H-SAM Flashplate, peptide substrate)
T1 construct: GST-tagged PRMT1; made in house; host or cells: High Five insect cells (baculovirus, pFastBacI)
How it was run: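 GST-tagged full-length PRMT1 from baculovirus-infected cells, preincubated 30 min at room temperature with compound in 20 mM Bicine pH 7.6, TCEP, BSG, Tween 20. Reaction started with 3H-SAM plus biotinylated peptide, stopped with 300 uM unlabelled SAM. Streptavidin Flashplate capture and scintillation counting; % inhibition curve-fitted for IC50.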

[2] = target: T2, Human CARM1 (PRMT4) (Homo sapiens, UniProt Q86X55); test: CARM1 biochemical assay (3H-SAM Flashplate, peptide substrate)
T2 construct: Flag-CARM1-His was eluted with 200 ug/ml FLAG peptide in buffer A; made in house; host or cells: HEK 293F cells (BacMam virus, pFastBacMam)
T2 sequence (Q86X55 with tags, fused parts or gaps isoform Q86X55-1): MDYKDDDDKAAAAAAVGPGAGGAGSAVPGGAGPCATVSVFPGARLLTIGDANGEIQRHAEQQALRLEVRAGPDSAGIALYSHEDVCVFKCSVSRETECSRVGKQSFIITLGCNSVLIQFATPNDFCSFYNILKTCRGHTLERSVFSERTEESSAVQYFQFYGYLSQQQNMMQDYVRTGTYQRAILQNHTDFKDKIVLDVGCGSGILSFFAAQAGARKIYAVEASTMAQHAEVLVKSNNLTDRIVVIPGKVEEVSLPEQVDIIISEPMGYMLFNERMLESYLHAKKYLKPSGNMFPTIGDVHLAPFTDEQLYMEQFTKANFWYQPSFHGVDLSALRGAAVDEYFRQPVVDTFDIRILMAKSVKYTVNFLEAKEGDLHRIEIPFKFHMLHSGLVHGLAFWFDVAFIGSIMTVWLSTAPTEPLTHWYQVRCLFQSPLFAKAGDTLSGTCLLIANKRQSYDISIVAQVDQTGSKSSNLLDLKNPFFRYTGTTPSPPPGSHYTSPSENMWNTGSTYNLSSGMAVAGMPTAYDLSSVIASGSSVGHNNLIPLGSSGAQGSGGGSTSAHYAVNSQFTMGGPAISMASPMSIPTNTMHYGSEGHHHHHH
Source text: General Materials. S-adenosylmethionine (SAM), S-adenosylhomocysteine (SAH), bicine, Tween20, dimethylsulfoxide (DMSO), bovine skin gelatin (BSG), sodium butyrate and Tris(2-carboxyethyl)phosphine hydrochloride solution (TCEP) were purchased from Sigma-Aldrich at the highest level of purity possible. ^3H-SAM was purchase from American Radiolabeled Chemicals with a specific activity of 80 Ci/mmol. 384-well streptavidin Flashplates were purchased from PerkinElmer.
Substrates. Peptide representative of human histone H3 residues 16-30 was synthesized with an N-terminal linker-affinity tag motif and a C-terminal amide cap by 21st Century Biochemicals.
Protein Expression. Recombinant baculovirus were generated according to Bac-to-Bac kit instructions (Life Technologies). […] Infections were carried out at 37° C. for 48 hours, harvested by centrifugation, and stored at −80° C. for purification.
Protein Purification. […] Column was washed with 500 mM NaCl in buffer A and Flag-CARM1-His was eluted with 200 ug/ml FLAG peptide in buffer A. Pooled fractions were dialyzed in 20 mM Tris, 150 mM NaCl, 5% glycerol and 1 mM DTT, pH 7.8.
General Procedure for CARM1 Enzyme Assays on Peptide Substrates. The assays were all performed in a buffer consisting of 20 mM Bicine (pH=7.6), 1 mM TCEP, 0.005% BSG, and 0.002% Tween 20, prepared on the day of use. […] DMSO (1 ul) was added to Columns 11, 12, 23, 24, rows A-H for the maximum signal control and 1 ul of SAH, a known product and inhibitor of CARM1, was added to columns 11, 12, 23, 24, rows I-P for the minimum signal control. A cocktail (40 ul) containing the CARM1 enzyme was added by Multidrop Combi (Thermo-Fisher). The compounds were allowed to incubate with CARM1 for 30 min at room temperature, then a cocktail (10 ul) containing ^3H-SAM and peptide was added to initiate the reaction (final volume=51 ul). […] The assays were stopped by the addition of non-radiolabeled SAM (10 ul) to a final concentration of 300 uM, which dilutes the ^3H-SAM to a level where its incorporation into the peptide substrate is no longer detectable. 50 ul of the reaction in the 384-well polypropylene plate was then transferred to a 384-well Flashplate and the biotinylated peptides were allowed to bind to the streptavidin surface for at least 1 hour before being washed once with 0.1% Tween20 in a Biotek ELx405 plate washer. The plates were then read in a PerkinElmer TopCount plate reader to measure the quantity of ^3H-labeled peptide bound to the Flashplate surface, measured as disintegrations per minute (dpm) or alternatively, referred to as counts per minute (cpm).
Where dpm=disintegrations per minute, cmpd=signal in assay well, and min and max are the respective minimum and maximum signal controls.
Where top and bottom are the normally allowed to float, but may be fixed at 100 or 0 respectively in a 3-parameter fit. The Hill Coefficient normally allowed to float but may also be fixed at 1 in a 3-parameter fit. Y is the % inhibition and X is the compound concentration.

T1 sequence (Q99873 with tags, fused parts or gaps): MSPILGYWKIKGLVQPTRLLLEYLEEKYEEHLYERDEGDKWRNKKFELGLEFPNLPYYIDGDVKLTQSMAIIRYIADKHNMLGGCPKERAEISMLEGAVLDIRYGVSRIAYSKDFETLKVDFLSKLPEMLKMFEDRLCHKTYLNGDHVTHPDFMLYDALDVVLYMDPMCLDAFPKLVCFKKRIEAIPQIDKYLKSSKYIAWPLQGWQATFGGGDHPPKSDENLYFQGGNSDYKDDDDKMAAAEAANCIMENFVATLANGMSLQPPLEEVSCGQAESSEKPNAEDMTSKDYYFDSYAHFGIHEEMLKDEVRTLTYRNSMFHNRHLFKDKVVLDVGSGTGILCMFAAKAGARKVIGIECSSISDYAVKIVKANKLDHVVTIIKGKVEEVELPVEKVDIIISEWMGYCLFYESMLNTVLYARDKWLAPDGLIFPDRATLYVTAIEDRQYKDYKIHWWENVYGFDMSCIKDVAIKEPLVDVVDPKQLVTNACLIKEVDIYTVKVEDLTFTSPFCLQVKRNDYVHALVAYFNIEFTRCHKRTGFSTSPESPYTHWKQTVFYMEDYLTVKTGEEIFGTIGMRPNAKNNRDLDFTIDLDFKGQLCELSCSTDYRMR

| SMILES | IC50 [1] [µM] | IC50 [2] [µM] |
| --- | --- | --- |
| COCCn1cc(CN(C)CCN)c(-c2ccc(F)cc2)n1 [Compound 5] | 1.01 to 3 | > 10 |
| COCCn1ncc(CN(C)CCN)c1-c1ccc(F)cc1 [Compound 6] | 3.01 to 10 | > 10 |
| CCn1ncc(CN(C)CCNC)c1-c1ccc(F)cc1 [Compound 7] | 0.101 to 1 | 1.01 to 3 |
| CCn1cc(CN(C)CCNC)c(-c2ccc(F)cc2)n1 [Compound 8] | 1.01 to 3 | 3.01 to 10 |
| CN(CCN)Cc1c[nH]nc1-c1ccc(Cl)cc1 [Compound 95] | < 0.1 | 0.101 to 1 |
| CN(CCN)Cc1c[nH]nc1-c1ccc(OCC(F)(F)F)cc1 [Compound 96] | < 0.1 | < 0.1 |
| CC(C)Oc1ccc(-c2n[nH]cc2CN(C)CCN)cc1F [Compound 97] | < 0.1 | 0.101 to 1 |
| CN(CCN)Cc1c[nH]nc1-c1ccc(C2CCOCC2)cc1 [Compound 98] | < 0.1 | 0.101 to 1 |
| CN(CCN)Cc1c[nH]nc1-c1ccc(F)cc1F [Compound 99] | < 0.1 | 3.01 to 10 |
| CN(CCN)Cc1n[nH]cc1-c1ccc(C#N)cc1 [Compound 100] | < 0.1 | 3.01 to 10 |
| CC(C)c1ccc(-c2c[nH]nc2CN(C)CCN)cc1 [Compound 101] | < 0.1 | 3.01 to 10 |
| CN(CCN)Cc1n[nH]cc1-c1ccc(Cl)cc1 [Compound 102] | < 0.1 | 1.01 to 3 |
| CN(CCN)Cc1n[nH]cc1-c1ccc(C(F)(F)F)cc1 [Compound 103] | < 0.1 | 1.01 to 3 |
| CN(CCN)Cc1n[nH]cc1-c1ccc(C2CC2)cc1 [Compound 104] | < 0.1 | 1.01 to 3 |
| CN(CCN)Cc1n[nH]cc1-c1ccc(OC(F)(F)F)cc1 [Compound 105] | < 0.1 | 3.01 to 10 |
| CN(CCN)Cc1c[nH]nc1-c1cc(F)ccc1Cl [Compound 106] | 0.101 to 1 | > 10 |
| COc1ccc(-c2n[nH]cc2CN(C)CCN)c(F)c1 [Compound 107] | < 0.1 | 1.01 to 3 |
| Cc1ccc(-c2n[nH]cc2CN(C)CCN)c(F)c1 [Compound 108] | < 0.1 | 1.01 to 3 |
| COc1ccccc1-c1n[nH]cc1CN(C)CCN [Compound 109] | 0.101 to 1 | 3.01 to 10 |
| Cc1cc(C#N)ccc1-c1n[nH]cc1CN(C)CCN [Compound 110] | < 0.1 | 3.01 to 10 |
| CN(CCN)Cc1c[nH]nc1-c1cc(F)cc(F)c1 [Compound 111] | < 0.1 | 0.101 to 1 |
| CC(=O)c1cccc(-c2n[nH]cc2CN(C)CCN)c1 [Compound 112] | < 0.1 | 1.01 to 3 |
| CN(CCN)Cc1cnn(CC(O)CO)c1-c1ccc(F)cc1 (stereo not drawn) [Compound 113] | 1.01 to 3 | > 10 |
| CN(CCN)Cc1c[nH]nc1-c1ccc(OC2CC2)cc1 [Compound 114] | < 0.1 | 0.101 to 1 |

| SMILES | IC50 [1] [µM] | IC50 [2] [µM] |
| --- | --- | --- |
| CC(O)c1ccc(-c2n[nH]cc2CN(C)CCN)cc1 (stereo not drawn) [Compound 115] | < 0.1 | 3.01 to 10 |
| CN(CCN)Cc1c[nH]nc1-c1ccc(C2CC2)cc1 [Compound 116] | < 0.1 | 1.01 to 3 |
| CN(CCN)Cc1c[nH]nc1-c1ccc(C(F)(F)F)c(Cl)c1 [Compound 117] | < 0.1 | 0.101 to 1 |
| CN(CCN)Cc1c[nH]nc1-c1ccc(Cl)c(F)c1 [Compound 118] | < 0.1 | 0.101 to 1 |
| CN(CCN)Cc1n[nH]cc1-c1ccc(OC2CC2)cc1 [Compound 119] | < 0.1 | 0.101 to 1 |
| CN(CCN)Cc1c[nH]nc1-c1cc(F)cc(Cl)c1 [Compound 121] | < 0.1 | 0.101 to 1 |
| CN(CCN)Cc1c[nH]nc1-c1cccc(Cl)c1 [Compound 122] | < 0.1 | 0.101 to 1 |
| CN(CCN)Cc1c[nH]nc1-c1cccc(Cl)c1F [Compound 123] | < 0.1 | 1.01 to 3 |
| CN(CCN)Cc1c[nH]nc1-c1ccc(F)c(Cl)c1 [Compound 124] | < 0.1 | 0.101 to 1 |
| COc1ccc(-c2n[nH]cc2CN(C)CCN)cc1Cl [Compound 125] | < 0.1 | 1.01 to 3 |
| Cc1ccc(-c2n[nH]cc2CN(C)CCN)cc1Cl [Compound 126] | < 0.1 | 0.101 to 1 |
| COc1cc(Cl)cc(-c2n[nH]cc2CN(C)CCN)c1 [Compound 127] | < 0.1 | 1.01 to 3 |
| CN(CCN)Cc1cn(CC2CCOCC2)nc1-c1ccc(F)cc1 [Compound 128] | 3.01 to 10 | > 10 |
| Cc1c(F)cccc1-c1n[nH]cc1CN(C)CCN [Compound 129] | 0.101 to 1 | 1.01 to 3 |
| COc1cccc(-c2n[nH]cc2CN(C)CCN)c1 [Compound 130] | 0.101 to 1 | 1.01 to 3 |
| CCN(C)C(=O)c1ccc(-c2n[nH]cc2CN(C)CCN)cc1 [Compound 163] | 0.101 to 1 | – |
| CC(C)CN(C)C(=O)c1ccc(-c2n[nH]cc2CN(C)CCN)cc1 [Compound 164] | 0.101 to 1 | – |
| CCOc1ccc(-c2n[nH]cc2CN(C)CCN)cc1 [Compound 166] | < 0.1 | – |
| COCCOc1ccc(-c2n[nH]cc2CN(C)CCN)cc1 [Compound 167] | < 0.1 | – |
| Cc1[nH]nc(-c2ccc(F)cc2)c1CN(C)CCN [Compound 169] | 0.101 to 1 | – |
| CC(C)Cc1ccc(-c2c[nH]nc2CN(C)CCN)cc1 [Compound 170] | < 0.1 | – |
| NCCN(CCO)Cc1c[nH]nc1-c1ccc(F)cc1 [Compound 171] | 0.101 to 1 | – |
| CN(CCN)Cc1c[nH]nc1-c1ccc(OCCN2CCOCC2)cc1 [Compound 172] | 0.101 to 1 | – |
| CN(CCN)Cc1c[nH]nc1-c1ccc2c(c1)NC(=O)CO2 [Compound 173] | 0.101 to 1 | – |

Reference: patent US9346761B2, “Arginine methyltransferase inhibitors and uses thereof” (Epizyme, Inc., priority 2013, dated 2016)
